In patent US20080015194A1, “METHODS AND COMPOSITIONS OF TARGETED DRUG DEVELOPMENT” (priority 2006, published 2008):
Read-outs that look alike come from different tables or passages of the source.

Key:
[1] = target: T1, EGFR (Rattus norvegicus, UniProt G3V6K6); assay: Inhibition of [125I]EGF binding to EGFR, radioligand filtration assay (NovaScreen); conditions: rat liver membranes
T1 construct: Receptor source was rat liver membranes; tissue NovaScreen BioSciences; host or cells: rat liver membranes
Experimental: Identified compounds, representing various pharmacaphore models, were tested for ability to inhibit EGFR at 25 μM.
AD4-compounds were identified using pharmacophore models (see Example 4) and then were docked with the binding site of EGFR (SEQ ID NO: 1) that is recognized by defined CDRs of cetuximab. The inhibition of epidermal growth factor binding by AD4-compounds was then determined (NovaScreen BioSciences, Hanover, Md.). Inhibition of EGF binding was determined at 25 μM concentration.
Receptor source was rat liver membranes. The radioligand was [^125I]EGF ([…]) at a final ligand concentration of 0.36 nM. A non-specific determinant was used as EGF—[100 nM]. The reference compound and positive control was EGF. Reactions were carried out in 10 mM HEPES (pH 7.4) containing 0.1% BSA at 25 °C for 60 minutes. The reaction was terminated by rapid vacuum filtration onto glass fiber filters. Radioactivity trapped onto the filters was determined and compared to control values to ascertain any interactions of test compounds with the EGF binding site. The EGF inhibitor assays were modified from, for example, Mukku (1984) J. Biol. Chem. 259, 6543-6546; Duh et al. (1990) World J. Surgery 14, 410-418; Lokeshwar et al. (1989) J. Biol. Chem. 264(32), 19318-19326.

[2] = target: EGF receptor of rat liver membranes (rat); assay: radioligand binding of [125I]EGF to rat liver membranes, filtration (NovaScreen)
[3] = 25 μM compound, [125I]EGF 0.36 nM, read-out: inhibition of binding of EGF to EGFR
[4] = inhibition of [125I]EGF binding at 25 μM, read-out: EGFR INHIBITION
[5] = 25 μM compound, [125I]EGF 0.36 nM

T1 sequence (G3V6K6 25-1209): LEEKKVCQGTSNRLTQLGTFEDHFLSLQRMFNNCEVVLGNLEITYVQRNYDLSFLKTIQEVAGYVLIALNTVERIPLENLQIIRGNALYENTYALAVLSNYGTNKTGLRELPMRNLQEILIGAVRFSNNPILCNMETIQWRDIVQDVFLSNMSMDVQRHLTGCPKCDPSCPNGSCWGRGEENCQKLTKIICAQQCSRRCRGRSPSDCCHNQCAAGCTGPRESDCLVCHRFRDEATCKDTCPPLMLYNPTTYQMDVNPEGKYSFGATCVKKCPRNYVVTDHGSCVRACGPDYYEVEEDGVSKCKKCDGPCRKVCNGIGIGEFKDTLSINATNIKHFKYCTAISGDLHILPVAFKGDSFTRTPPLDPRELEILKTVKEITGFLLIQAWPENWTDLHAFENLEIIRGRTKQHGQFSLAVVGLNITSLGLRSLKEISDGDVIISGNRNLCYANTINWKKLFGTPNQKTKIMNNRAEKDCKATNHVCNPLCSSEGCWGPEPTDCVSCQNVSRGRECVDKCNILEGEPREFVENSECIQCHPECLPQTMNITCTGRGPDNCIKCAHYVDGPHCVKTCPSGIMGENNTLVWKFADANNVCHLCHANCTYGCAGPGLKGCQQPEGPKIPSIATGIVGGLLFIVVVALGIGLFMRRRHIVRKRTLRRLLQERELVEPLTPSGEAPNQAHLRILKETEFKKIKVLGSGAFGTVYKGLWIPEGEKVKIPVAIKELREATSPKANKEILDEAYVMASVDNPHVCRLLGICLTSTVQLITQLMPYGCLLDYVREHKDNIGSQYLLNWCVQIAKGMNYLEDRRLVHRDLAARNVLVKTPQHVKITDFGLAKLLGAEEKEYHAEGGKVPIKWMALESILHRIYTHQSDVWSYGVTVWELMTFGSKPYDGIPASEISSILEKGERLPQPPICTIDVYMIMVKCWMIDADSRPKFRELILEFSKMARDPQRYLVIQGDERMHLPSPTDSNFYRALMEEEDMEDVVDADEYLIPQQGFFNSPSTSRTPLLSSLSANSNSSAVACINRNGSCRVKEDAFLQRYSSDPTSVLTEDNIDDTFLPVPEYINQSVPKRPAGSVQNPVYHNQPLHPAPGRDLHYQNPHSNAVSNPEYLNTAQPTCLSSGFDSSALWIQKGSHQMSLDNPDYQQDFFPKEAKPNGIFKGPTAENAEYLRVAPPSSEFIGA

Compound	inhibition at 25 µM [1, 4] [%]	further results
CC1=C(C(=O)Nc2cccc(C)c2)C(c2ccc(O)cc2)NC(=O)N1 (stereo not shown) [AD4-1010, 4-(4-hydroxyphenyl)-6-methyl-N-(3-methylphenyl)-2-oxo-1,2,3,4-tetrahydro-5pyrimidinecarboxamide]	39.4	inhibition at 25 µM [1, 3]: 39.4%
CCOc1ccc(/C(C)=N/N=C2\NC(=O)C(CC(=O)O)S2)cc1 (stereo not shown) [AD4-1016]	37.8	
O=C(N/N=C/c1cc(Cl)ccc1O)c1ccc(O)cc1 [AD4-1017]	35	
Oc1ccc(/C=N/N=C/c2ccc(O)cc2O)c(O)c1 [AD4-1018]	36.2	
O=C(O)Cn1nnc(-c2ccc(OCc3ccccc3)cc2)n1 [AD4-1020, {5-[4-(benzyloxy)phenyl]-2H-tetrazol-2-yl}acetic acid]	47.8	inhibition of binding of EGF to EGFR [1, 5]: 48%; inhibition at 25 µM [1, 3]: 47.8%
CC(Oc1ccc(C(=O)NCCc2ccccc2)cc1)C(=O)O (stereo not shown) [AD4-1021]	43.4	inhibition at 25 µM [1, 3]: 43%
Cc1cc(C)c(OCC(=O)Nc2cc(O)ccc2C(=O)O)cc1C [AD4-1022]	38.6	inhibition at 25 µM [1, 3]: 39%
O=C(O)C[C@H](NCc1cccnc1)C(=O)Nc1ccc(Cl)cc1 [AD4-1025, N^1-(4-chlorophenyl)-N^2-(3-pyridinylmethyl)-alpha-asparagine]	75.7	inhibition of binding of EGF to EGFR [1, 5]: 76%; inhibition at 25 µM [1, 3]: 75.7%
O=C(O)CCc1ccc(-c2ccc(Cl)cc2)n1CCC(=O)O [AD4-1027]	38.6	inhibition at 25 µM [1, 3]: 39%
COc1cccc(OCC(=O)Nc2ccccc2C(=O)O)c1 [AD4-1030]	37.7	inhibition at 25 µM [1, 3]: 38%
CN(C1=NC(=O)C(CC(=O)O)S1)c1ccc(O)cc1 (stereo not shown) [AD4-1038, {2-[(4-Hydroxy-phenyl)-methyl-amino]-4-oxo-4,5-dihydro-thiazol-5-yl}-acetic acid]	70.9	inhibition at 25 µM [1, 3]: 70.7%
O=C(CC(NCC1CCCO1)C(=O)O)Nc1cccc(Cl)c1 (stereo not shown) [AD4-1039]	31.7	inhibition at 25 µM [1, 3]: 32%
CCCC(NC(=O)CCc1c(C)c2ccc(O)cc2oc1=O)C(=O)O (stereo not shown) [AD4-1047]	32.7	
COc1cc(/C=N/NC(=O)c2ccc(O)cc2O)ccc1O [AD4-1057]	30.1	
Cn1c(=O)c2c(nc(SCCCO)n2Cc2ccccc2)n(C)c1=O [AD4-1060]	30.2	
NC(=O)C1CCN(C2CC(=O)N(c3ccc(C(=O)O)cc3)C2=O)CC1 (stereo not shown) [AD4-1108]	33.1	
O=C(O)CCCN1C(=O)/C(=C/c2cccc(O)c2)SC1=S [AD4-1109]	36.5	
CCOc1cc(C=C2C(=O)NC(=O)NC2=O)ccc1CC(=O)O [AD4-1121]	35	
O=C(NC(=S)Nc1ccc(O)c(C(=O)O)c1)c1ccccc1 [AD4-1123]	34.1	
O=C1Nc2ccccc2C1(O)C/C(=N/O)c1ccc2c(c1)OCCO2 (stereo not shown) [AD4-1124]	33.1	
Cc1ccc(OCCn2c(SCCO)nc3c(N)ncnc32)cc1 [AD4-1128]	38	

Compound	inhibition at 25 µM [1, 4] [%]	further results
Cc1ccc(OCC(=O)Nc2ccc(O)cc2C(=O)O)c(C)c1 [AD4-1132, 2-{[(2,4-dimethylphenoxy)acetyl]amino}-5-hydroxybenzoic acid]	59.6	inhibition at 25 µM [1, 3]: 59.6%
Oc1ccc(-c2csc(NCc3ccco3)n2)c(O)c1 [AD4-1133]	37.3	
Cc1ccc(C(=O)Nc2ccc(C(=O)NCCCC(=O)O)cc2)o1 [AD4-1139]	39	
O=C(CC1SC(Nc2ccc(O)cc2)=NC1=O)Nc1ccc(Br)cc1 (stereo not shown) [AD4-1140]	36.5	
O=C(O)c1ccccc1SC1CC(=O)N(c2ccc(O)cc2)C1=O (stereo not shown) [AD4-1141]	46.7	
COC(=O)c1cc(NC(=O)CSc2nc(C)cc(=O)[nH]2)cc(C(=O)OC)c1 [AD4-1147]	43.4	
NC(=O)CCC(Nc1ncnc2ccccc12)C(=O)O (stereo not shown) [AD4-1148]	43.2	
O=C(O)CC(NCc1ccco1)C(=O)Nc1ccc2ccccc2c1 (stereo not shown) [AD4-1149]	33.6	
O=C(O)COc1ccc(C(=O)NCc2ccccc2)cc1 [AD4-1150]	43.1	
CN(Cc1ccccc1)S(=O)(=O)c1ccc(O)c(C(=O)O)c1 [AD4-1153]	34	
Cc1cccc(NC(=O)C(CC(=O)O)NCc2ccccc2)c1 (stereo not shown) [AD4-1155]	30.1	
O=C(O)Cn1nnc(-c2ccc(OCc3cccc(C(F)(F)F)c3)cc2)n1 [AD4-1164]	33.3	
Cc1ccc(Cl)cc1NC(=O)CC(C(=O)O)N1CCNCC1 (stereo not shown) [AD4-1165]	47.2	
Cc1cccc(NC(=O)CC(NCCN2CCOCC2)C(=O)O)c1 (stereo not shown) [AD4-1166]	31.2	
CCN(CC)c1ccc(NC(=O)C(CC(=O)O)NCc2ccccc2)cc1 (stereo not shown) [AD4-1167]	30.6	
O=C(O)COc1ccc(-c2nnn(CC(=O)O)n2)cc1 [AD4-1169]	31.4	
O=C(O)CC(NCc1ccccc1)C(=O)Nc1ccc(Cl)cc1 (stereo not shown) [AD4-1171]	47.2	
O=C(O)Cn1nnc(-c2ccc(OCc3c(F)cccc3Cl)cc2)n1 [AD4-1175]	35.1	
CCNc1nc(N)nc(Oc2ccc(OCc3ccccc3)nn2)n1 [AD4-1176]	34	
O=C(CSc1ccccc1)Nc1ccc(O)c(C(=O)O)c1 [AD4-1178]	34.6	
[125I]EGF (epidermal growth factor radioligand)		Bmax (receptor number) (fmol/mg tissue (wet weight)) [2]: 43; Kd [2]: 1.04 nM
